Patent US7446195B2, “High affinity thiophene-based and furan-based kinase ligands” (Schering Corporation, priority 2005, dated 2008)

Target: CDK-2 (Homo sapiens, UniProt P24941)
Experiment: CDK-2 inhibition (Table 1; fluorescence polarization displacement assay)
Format: binding
Conditions: inhibitory effectiveness toward CDK-2
How it was run: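 Ki was measured by fluorescence polarization displacement of 50 nM BMS-Alexa Fluor647 tracer from CDK-2 ([…]) or CDK-2/cyclin A ([…]). Buffer was 10 mM Hepes pH 7.5, 150 mM NaCl, 1 mM DTT, with 15 min incubation at room temperature and read at ex 580/em 680 nm. Ki came from nonlinear regression of the displacement curves.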

SMILES | IC50 [µM]
COc1ccc(NC(=O)c2ccc(C(=O)Nc3ccc(C#N)cc3)s2)c(C)c1 [Compound 175] | ≥ 40
COc1ccc(C(=O)Nc2ccc(C(=O)Nc3ccc(-n4cncn4)cc3)s2)c(C)c1 [Compound 2] | ≤ 1
COc1ccc(C(=O)Nc2ccc(C(=O)N3CCC(c4ccccn4)C3)s2)c(C)c1 (stereo not drawn) [Compound 188] | ≥ 40
CN1CCC(N(C)C(=O)c2ccc(C(=O)Nc3ccc(-n4cncn4)c(F)c3)o2)CC1 [Compound 210] | ≥ 40

The remaining lines, values ahead:

IC50 [µM] | SMILES
≥ 40 | COc1ccc(NC(=O)c2ccc(C(=O)Nc3cccc(-c4cnco4)c3)s2)c(C)c1 [Compound 134]
1 to 40 | COc1ccc(C(=O)Nc2ccc(C(=O)N3CCC(Oc4cnccn4)CC3)s2)c(C)c1 [Compound 76]
